Source: patent US20140288040A1, “SUBSTITUTED BENZYLAMINE COMPOUNDS, THEIR USE IN MEDICINE, AND IN PARTICULAR THE TREATMENT OF HEPATITIS C VIRUS (HCV) INFECTION” (ASTEX THERAPEUTICS LIMITED, priority 2011, published 2014)
Where a name gives a salt, the structure may show the parent alone.

target: T1, HCV NS3 protease (full length NS34a) (Hepatitis C virus genotype 1b, UniProt P26663); test: HCV NS3 protease assay (FRET, full length NS34a); type: biochemical; conditions: IC50 values of 10-150 μM against the protease activity of the full length NS34a, or at least 40% inhibition of protease activity at a concentration of 100 μM
T1 construct: The protease activity of the full length NS34a was measured using a FRET-based assay; made in house
T1 sequence (P26663 1658-1711): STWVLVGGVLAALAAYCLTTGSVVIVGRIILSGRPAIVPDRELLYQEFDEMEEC
T1 sequence (P26663 1027-1657): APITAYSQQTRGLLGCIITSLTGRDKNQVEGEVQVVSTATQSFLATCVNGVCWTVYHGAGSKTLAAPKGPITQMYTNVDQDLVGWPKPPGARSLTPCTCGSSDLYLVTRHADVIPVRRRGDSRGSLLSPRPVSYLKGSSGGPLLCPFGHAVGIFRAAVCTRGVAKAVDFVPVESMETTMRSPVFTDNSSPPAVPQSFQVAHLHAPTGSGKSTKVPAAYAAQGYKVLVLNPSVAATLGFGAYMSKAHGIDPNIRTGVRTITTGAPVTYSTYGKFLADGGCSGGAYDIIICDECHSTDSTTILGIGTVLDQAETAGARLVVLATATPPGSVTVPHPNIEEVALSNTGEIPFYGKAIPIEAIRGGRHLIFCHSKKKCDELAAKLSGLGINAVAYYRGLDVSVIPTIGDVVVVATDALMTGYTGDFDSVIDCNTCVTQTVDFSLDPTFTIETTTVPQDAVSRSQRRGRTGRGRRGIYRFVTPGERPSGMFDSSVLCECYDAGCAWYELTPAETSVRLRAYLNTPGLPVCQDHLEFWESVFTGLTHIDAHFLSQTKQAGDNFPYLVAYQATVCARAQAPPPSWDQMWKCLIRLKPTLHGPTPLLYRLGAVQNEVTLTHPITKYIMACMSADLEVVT
Description: The HCV NS3 protease functions have been extensively studied and are considered as potential targets for antiviral therapy: see for example the many references listed in the introductory section of this application. Therefore, the activity of the compounds of the invention as anti-HCV agents was assessed using a full length HCV NS3 protease.
The protease activity of the full length NS34a was measured using a FRET-based assay utilizing a peptide substrate derived from the NS4AB cleavage site (Anaspec) and labelled at one end with a quencher (QXL520) and at the other with a fluorophore (5-FAMsp). NS34a (produced in-house by literature methods) was incubated with test compounds and peptide substrate in 50 mM Tris pH8, 20 mM DTT, 1% CHAPS, 10% glycerol and 5% DMSO. The reaction was followed by monitoring the change in fluorescence on a Molecular Devices Gemini plate reader for 30 minutes at room temperature. Initial rates were calculated from the progress curves using SoftMax Pro (Molecular Devices). IC50 values were then calculated from replicate curves using Prism GraphPad software.

Row | SMILES | IC50
1 | CCC[C@@H](N[C@H](C)CC(N)=O)c1ccc(Cl)c(Oc2ccccc2)c1F [Example 126] | 10 to 150 µM
2 | CC[C@@H](N)c1ccc(Cl)c(Oc2ccc(Cl)nn2)c1F [Example 153] | 10 to 150 µM
3 | CC[C@@H](N[C@@H](C)CC(=O)N[C@H]1C[C@@H](N)C1)c1ccc(Cl)c(Oc2ccccc2)c1F [Example 320] | 10 to 150 µM
4 | CCC(NC(C)COC)c1ccc(F)c(Oc2ccccc2)c1F (stereo not shown) [Example 51] | 10 to 150 µM
5 | CC[C@@H](N[C@@H](C)CC(=O)N[C@@H](C)CO)c1ccc(Cl)c(Oc2ccccc2)c1F [Example 206] | 10 to 150 µM
6 | CCC(NCCOC)c1ccc(F)c(Oc2ccccc2)c1F (stereo not shown) [Example 42, [1-(2,4-Difluoro-3-phenoxy-phenyl)-propyl]-(2-methoxy-ethyl)-amine. hydrochloride] | 10 to 150 µM
7 | CC[C@@H](N[C@H](C)CC(N)=O)c1ccc(Cl)c(Oc2cccc(CNS(C)(=O)=O)c2)c1F [Example 217] | 10 to 150 µM
8 | CC[C@@H](N)c1ccc(Cl)c(Oc2ccc(C(F)(F)F)cc2)c1F [Example 175] | 10 to 150 µM
9 | NC(=O)C[C@@H](N)c1ccc(Cl)c(Oc2ccccc2)c1F [Example 354] | 10 to 150 µM
10 | CC[C@@H](N[C@H](C)CC(N)=O)c1ccc(Cl)c(Oc2ccc(N)c(OC)c2)c1F [Example 254] | 10 to 150 µM

Second part, the compound after the results:

Row | IC50 | SMILES
11 | 10 to 150 µM | CC[C@@H](N[C@H](C)CC(N)=O)c1ccc(F)c(Oc2ccccc2)c1F [Example 120]
12 | 10 to 150 µM | C[C@H](CC(N)=O)N[C@H](C)c1ccc(Cl)c(Oc2ccccc2)c1F [Example 335]
13 | 10 to 150 µM | CCC(NC(C)c1ccn[nH]1)c1ccc(F)c(Oc2ccccc2)c1F (stereo not shown) [Example 33]
14 | 10 to 150 µM | C[C@@H](CC(N)=O)N[C@@H](c1ccc(Cl)c(Oc2ccccc2)c1F)C1CCOCC1 [Example 299]
15 | 10 to 150 µM | CC[C@@H](N[C@H](C)CC(N)=O)c1ccc(Cl)c(Oc2ccc(C(N)=O)nc2)c1F [Example 248, 5-{3-[(R)-1-((R)-2-Carbamoyl-1-methyl-ethylamino)-propyl]-6-chloro-2-fluoro-phenoxy}-pyridine-2-carboxylic acid amide.hydrochloride]
16 | 10 to 150 µM | CC[C@@H](N[C@@H](C)C(=O)N(C)C)c1ccc(Cl)c(Oc2ccccc2)c1F [Example 332]
17 | 10 to 150 µM | N[C@H](CC1CCOCC1)c1ccc(Cl)c(Oc2ccccc2)c1F [Example 276A, (R)-1-(4-Chloro-2-fluoro-3-phenoxy-phenyl)-2-(tetrahydro-pyran-4-yl)-ethylamine. hydrochloride]
18 | 10 to 150 µM | C[C@H](CC(N)=O)N[C@H](CCO)c1ccc(Cl)c(Oc2ccccc2)c1F [Example 353]
19 | 10 to 150 µM | C[C@@H](N)c1ccc(Cl)c(Oc2ccccc2)c1F [Example 341]
20 | 10 to 150 µM | NC(CCO)c1ccc(F)c(Oc2ccccc2)c1F (stereo not shown) [Example 294, 3-Amino-3-(2,4-difluoro-3-phenoxy-phenyl)-propan-1-ol.hydrochloride]
21 | 10 to 150 µM | CC[C@@H](N[C@@H](C)CC(=O)N(C)OC)c1ccc(Cl)c(Oc2ccccc2)c1F [Example 161]
22 | 10 to 150 µM | CCC(NCc1cnc(C)n1C)c1ccc(F)c(Oc2ccccc2)c1F (stereo not shown) [Example 23]

same assay, conditions: protease activity of full length NS34a, FRET peptide substrate; read-out: Activity IC50

Row | SMILES | IC50
23 | C[C@@H](CC(N)=O)N[C@H](C)c1ccc(Cl)c(Oc2ccccc2)c1F [Example 336] | 1 µM
24 | CC[C@@H](N)c1ccc(Cl)c(Oc2ccc(C(C)O)cc2)c1F (stereo partly shown) [Example 188] | 2.7 µM
25 | CC[C@H](Nc1cccc2c1CNC2)c1ccc(F)c(Oc2ccccc2)c1F [Example 136, [(S)-1-(2,4-Difluoro-3-phenoxy-phenyl)-propyl]-(2,3-dihydro-1H-isoindol-4-yl)-amine.hydrochloride] | 1.1 µM
26 | CC[C@@H](N[C@@H](C)C(N)=O)c1ccc(Cl)c(Oc2ccccc2)c1F [Example 54, (S)-2-[(R)-1-(4-Chloro-2-fluoro-3-phenoxy-phenyl)-propylamino]-propionamide hydrochloride] | 1.4 µM
27 | CC[C@@H](N)c1ccc(Cl)c(Oc2cccc(NC(=O)NCC(F)(F)F)c2)c1F [Example 171, 1-{3-[3-((R)-1-Amino-propyl)-6-chloro-2-fluoro-phenoxy]-phenyl}-3-(2,2,2-trifluoro-ethyl)-urea.hydrochloride] | 7.7 µM
28 | COCC[C@@H](N)c1ccc(Cl)c(Oc2ccccc2)c1F [Example 337, (R)-1-(4-Chloro-2-fluoro-3-phenoxy-phenyl)-3-methoxy-propylamine hydrochloride] | 7.6 µM
29 | CC[C@@H](N)c1ccc(Cl)c(Oc2ccc3c(c2)C(C)(C)CN3)c1F [Example 270] | 1.6 µM
30 | CCC(NC[C@@H](O)CO)c1ccc(F)c(Oc2ccccc2)c1F (stereo partly shown) [Example 69] | 6 µM
31 | CC[C@H](Nc1ccncc1)c1ccc(F)c(Oc2ccccc2)c1F [Example 144, [(S)-1-(2,4-Difluoro-3-phenoxy-phenyl)-propyl]-pyridin-4-yl-amine. hydrochloride] | 0.4 µM
32 | NC(C1=CCCCC1)c1ccc(F)c(Oc2ccccc2)c1F (stereo not shown) [Example 40] | 6.3 µM
33 | CC[C@@H](N)c1ccc(Cl)c(Oc2ccc(C)nc2)c1F [Example 180] | 3.7 µM
34 | CC[C@@H](N)c1ccc(Cl)c(Oc2ccnc(Cl)c2)c1F [Example 167] | 6.1 µM
35 | CC[C@@H](N)c1ccc(Cl)c(Oc2ccc(C3(C#N)CC3)cc2)c1F [Example 192] | 3.1 µM
36 | CC[C@@H](N)c1ccc(Cl)c(Oc2ccc(N)cn2)c1F [Example 156, 6-[3-((R)-1-Amino-propyl)-6-chloro-2-fluoro-phenoxy]-pyridin-3-ylamine.dihydrochloride] | 6.2 µM
37 | CC[C@@H](N)c1ccc(Cl)c(Oc2cccc(CNC(C)=O)c2)c1F [Example 173] | 3.5 µM
38 | CC[C@@H](N[C@@H](C)CC(=O)NCCNC1CC1)c1ccc(Cl)c(Oc2ccccc2)c1F [Example 321] | 1.6 µM
39 | CC[C@@H](N)c1ccc(Cl)c(Oc2cccc([N+](=O)[O-])c2)c1F [Example 152] | 6.9 µM

The remaining lines, values ahead:

Row | IC50 | SMILES
40 | 6.8 µM | CC[C@@H](N)c1ccc(Cl)c(Oc2cccc(C(F)(F)F)c2)c1F [Example 162]
41 | 0.42 µM | CC[C@@H](N)c1ccc(Cl)c(Oc2ccc(C#N)cc2)c1F [Example 158]
42 | 5.6 µM | CCC(NCc1cnc[nH]1)c1ccc(F)c(Oc2ccccc2)c1F (stereo not shown) [Example 37]
43 | 3.1 µM | CC[C@@H](N)c1ccc(Cl)c(Oc2cccc(NS(C)(=O)=O)c2)c1F [Example 151]
44 | 8.2 µM | CC[C@@H](N)c1ccc(Cl)c(Oc2cc[nH]c(=O)c2)c1F [Example 218, 4-[3-((R)-1-Amino-propyl)-6-chloro-2-fluoro-phenoxy]-1H-pyridin-2-one. hydrochloride]
45 | 5 µM | CCC(CC)[C@@H](N)c1ccc(Cl)c(Oc2ccccc2)c1F [Example 346]
46 | 6.4 µM | CC[C@@H](N[C@H](C)CC(N)=O)c1ccc(Cl)c(Oc2ccc(-c3cnco3)c(C)c2)c1F [Example 318]
47 | 6.6 µM | CCC(NC(CO)CO)c1ccc(F)c(Oc2ccccc2)c1F (stereo not shown) [Example 43]
48 | 6.1 µM | CC[C@@H](N)c1ccc(Cl)c(Oc2ccc(C(C)OC)cc2)c1F (stereo partly shown) [Example 184]
49 | 1.5 µM | N[C@H](c1ccc(Cl)c(Oc2ccccc2)c1F)C1CCOCC1 [Example 344]
50 | 3.7 µM | CC[C@@H](N)c1ccc(Cl)c(Oc2cccc(C(N)=O)c2)c1F [Example 172]
51 | 6.4 µM | C[C@H](CC(=O)NCCN)N[C@@H](CC1CCOCC1)c1ccc(Cl)c(Oc2ccccc2)c1F [Example 351]
52 | 2 µM | CC[C@@H](N)c1ccc(Cl)c(Oc2ccc(F)cc2)c1F [Example 150]
53 | 2.3 µM | CC[C@@H](N)c1ccc(Cl)c(Oc2ccc(-c3nnc(C)o3)cc2)c1F [Example 181]
54 | 0.36 µM | CC[C@H](N[C@@H](C)c1c[nH]cn1)c1ccc(Cl)c(Oc2ccccc2)c1F [Example 129]
55 | 1.3 µM | CCNC(=O)O[C@H](C)c1cccc(Oc2c(Cl)ccc([C@@H](N)CC)c2F)c1 [Example 139, Ethyl-carbamic acid (R)-1-{3-[3-((S)-1-amino-propyl)-6-chloro-2-fluoro-phenoxy]-phenyl}-ethyl ester.hydrochloride]
56 | 3.4 µM | CC[C@@H](N[C@H](C)CC(=O)N[C@H](C)CO)c1ccc(Cl)c(Oc2ccccc2)c1F [Example 208]
57 | 1.6 µM | CC[C@@H](N)c1ccc(Cl)c(Oc2ccc(-c3cnco3)cc2)c1F [Example 203, (R)-1-[4-Chloro-2-fluoro-3-(4-oxazol-5-yl-phenoxy)-phenyl]-propylamine.hydrochloride]
58 | 1.8 µM | CCCCC(N)c1ccc(F)c(Oc2ccccc2)c1F (stereo not shown) [Example 10]
59 | 0.68 µM | CCC(Nc1ccncc1)c1ccc(F)c(Oc2ccccc2)c1F (stereo not shown) [Example 113, [1-(2,4-Difluoro-3-phenoxy-phenyl)-propyl]-pyridin-4-yl-amine.hydrochloride]
60 | 2.1 µM | CC[C@@H](N)c1ccc(Cl)c(Oc2cccc(CNS(C)(=O)=O)c2)c1F [Example 157]
61 | 0.91 µM | C[C@@H](CC(N)=O)N[C@H](CCO)c1ccc(Cl)c(Oc2ccccc2)c1F [Example 358]
62 | 1.6 µM | CC[C@@H](N)c1ccc(Cl)c(Oc2ccc(-c3cnco3)c(C)c2)c1F [Example 228]
63 | 6.2 µM | CC[C@@H](N)c1ccc(Cl)c(Oc2ccc(S(C)(=O)=O)cc2)c1F [Example 174]
64 | 3.9 µM | C[C@@H](CC(N)=O)NCc1ccc(F)c(Oc2ccccc2)c1F [Example 326]
